The values that follow come from patent US20140315812A1, “AMORPHOUS EZATIOSTAT ANSOLVATE” (Telik, Inc., priority 2011, published 2014).

Each structure is given as a SMILES string. Where two headings read alike, the source gives them in different places.

For data set [1] the following is noted: in vitro; cited from earlier work.
For data set [2] the following is noted: in vivo; cited from earlier work.
For data set [3] the following is noted: ezatiostat hydrochloride in a liposomal injectable formulation, MDS patients; cited from earlier work.
Data set [4] deals with HL-60 promyelocytic leukemia cells. Particulars: in vitro; cited from earlier work.
Data set [5] relates to hematopoietic progenitor cells. Particulars: normal human peripheral blood; cited from earlier work.
For data set [6], the system named is white blood cell production. Particulars: cited from earlier work.
The nature of data set [7]: Stability of the amorphous form by visual inspection after storage. In kind it is physicochemical. The protocol: The stability of the amorphous form was evaluated by visual inspection of a sample of the amorphous form prepared above after being stored at about 0-5° C. for about 8 months.

In the case of `CCOC(=O)[C@@H](N)CCC(=O)N[C@@H](CSCc1ccccc1)C(=O)N[C@@H](C(=O)OCC)c1ccccc1` [Ezatiostat], the “potentiation of the activity of cytotoxic agents” value in data set [1] and in data set [2] was “potentiate the activity of cytotoxic agents” in each case. Besides, in data set [3], the hematologic improvement result is given as “multi-lineage hematologic improvement”. Also, the tolerability entry in data set [3] was “well tolerated”. The “differentiation of HL-60 promyelocytic leukemia cells” value in data set [4] is listed as “induce the differentiation”. For the same compound, in data set [5], the “colony formation of hematopoietic progenitor cells” value is given as “stimulate colony formation of all three lineages”. The “white blood cell production” value in data set [6] (animals in which white blood cells were depleted by treatment with cisplatin or fluorouracil) and in data set [6] (normal animals) was “increase white blood cell production” each time.
For the compound `CCOC(=O)[C@@H](N)CCC(=O)N[C@@H](CSCc1ccccc1)C(=O)N[C@@H](C(=O)OCC)c1ccccc1.Cl` [amorphous form, ezatiostat hydrochloride], the “visual inspection (color, texture, flowability, crystal formation)” value in data set [7] (stored at about 0-5° C. for about 8 months) is “No change with respect to color, texture and flowability of the sample and no crystal formation was observed”. The “time for which the amorphous form is stable” value in data set [7] (under 0-5° C.) was “at least 8 months”.
